Experimental data reported in patent publication US20230365592A1 (Agios Pharmaceuticals, Inc., priority 2022, published 2023).

Target: T1, human PAH with the R408W mutation (Homo sapiens, UniProt P00439, R408W)
T1 construct: expressed in transfected cells
T1 sequence (P00439 1-452 R408W): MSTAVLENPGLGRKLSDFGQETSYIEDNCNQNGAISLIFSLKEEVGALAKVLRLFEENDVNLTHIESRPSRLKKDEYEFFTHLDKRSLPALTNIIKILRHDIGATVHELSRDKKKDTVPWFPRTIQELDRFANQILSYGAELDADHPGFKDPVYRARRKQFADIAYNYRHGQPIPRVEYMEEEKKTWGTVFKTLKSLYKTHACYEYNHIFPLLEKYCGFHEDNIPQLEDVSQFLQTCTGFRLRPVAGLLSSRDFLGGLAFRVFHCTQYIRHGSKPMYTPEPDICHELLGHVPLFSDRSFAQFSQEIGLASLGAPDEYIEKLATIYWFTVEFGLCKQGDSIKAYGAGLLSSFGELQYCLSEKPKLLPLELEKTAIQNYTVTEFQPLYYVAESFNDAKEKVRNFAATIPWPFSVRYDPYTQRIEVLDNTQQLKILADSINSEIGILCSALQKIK
Experiment: Cell Based Phenylalanine Flux Assay;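 note: after compound treatment, cells received sepiapterin plus isotope-labelled Phenylalanine for 4 hours, then labelled Tyrosine in the medium was quantified, 10-point 2-fold dilution series run in duplicate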
Conditions: A375 cells expressing human PAH R408W; 24 hrs compound incubation; 13C-Tyrosine by LC-MS; average where tested multiple times; read-out: AC50

Compound | AC50
O=C(c1nnc(C2CC2)s1)N1CCc2[nH]cnc2[C@H]1c1cc2c(F)cccn2n1 [Example 1993, (S)-(5-cyclopropyl-1,3,4-thiadiazol-2-yl)(4-(4-fluoropyrazolo[1,5-a]pyridin-2-yl)-1,4,6,7-tetrahydro-5H-imidazo[4,5-c]pyridin-5-yl)methanone] | < 500 nM
Cn1ccc(-c2nnc(C(=O)N3CCc4[nH]cnc4[C@@H]3c3cc4c(F)cccn4n3)s2)n1 [Example 1994, (R)-(4-(4-fluoropyrazolo[1,5-a]pyridin-2-yl)-1,4,6,7-tetrahydro-5H-imidazo[4,5-c]pyridin-5-yl)(5-(1-methyl-1H-pyrazol-3-yl)-1,3,4-thiadiazol-2-yl)methanone] | > 5000 nM
Cn1ccc(-c2nnc(C(=O)N3CCc4[nH]cnc4[C@H]3c3cc4c(F)cccn4n3)s2)n1 [Example 1995, (S)-(4-(4-fluoropyrazolo[1,5-a]pyridin-2-yl)-1,4,6,7-tetrahydro-5H-imidazo[4,5-c]pyridin-5-yl)(5-(1-methyl-1H-pyrazol-3-yl)-1,3,4-thiadiazol-2-yl)methanone] | < 500 nM
Cc1cccn2nc([C@@H]3c4nc[nH]c4CCN3C(=O)c3nnc(C4CC4)s3)cc12 [Example 1997, (S)-(5-cyclopropyl-1,3,4-thiadiazol-2-yl)(4-(4-methylpyrazolo[1,5-a]pyridin-2-yl)-1,4,6,7-tetrahydro-5H-imidazo[4,5-c]pyridin-5-yl)methanone] | 500 to 1000 nM
Cc1cccn2nc([C@@H]3c4nc[nH]c4CCN3C(=O)c3nnc(-c4ccn(C)n4)s3)cc12 [Example 1998, (S)-(5-(1-methyl-1H-pyrazol-3-yl)-1,3,4-thiadiazol-2-yl)(4-(4-methylpyrazolo[1,5-a]pyridin-2-yl)-1,4,6,7-tetrahydro-5H-imidazo[4,5-c]pyridin-5-yl)methanone] | < 500 nM
Cc1cccn2nc([C@H]3c4nc[nH]c4CCN3C(=O)c3nnc(-c4ccn(C)n4)s3)cc12 [Example 1999, (R)-(5-(1-methyl-1H-pyrazol-3-yl)-1,3,4-thiadiazol-2-yl)(4-(4-methylpyrazolo[1,5-a]pyridin-2-yl)-1,4,6,7-tetrahydro-5H-imidazo[4,5-c]pyridin-5-yl)methanone] | > 5000 nM
O=C(c1nc2ccccc2s1)N1CCc2[nH]cnc2[C@H]1c1cc2ccccn2n1 [Example 2000, (S)-benzo[d]thiazol-2-yl(4-(pyrazolo[1,5-a]pyridin-2-yl)-1,4,6,7-tetrahydro-5H-imidazo[4,5-c]pyridin-5-yl)methanone] | 1000 to 5000 nM
O=C(c1nc2ccccc2s1)N1CCc2[nH]cnc2[C@@H]1c1cc2ccccn2n1 [Example 2001, (R)-benzo[d]thiazol-2-yl(4-(pyrazolo[1,5-a]pyridin-2-yl)-1,4,6,7-tetrahydro-5H-imidazo[4,5-c]pyridin-5-yl)methanone] | > 5000 nM
O=C(c1nc2ccccc2s1)N1CCc2[nH]cnc2[C@H]1c1cc2c(F)cccn2n1 [Example 2002, (S)-benzo[d]thiazol-2-yl(4-(4-fluoropyrazolo[1,5-a]pyridin-2-yl)-1,4,6,7-tetrahydro-5H-imidazo[4,5-c]pyridin-5-yl)methanone] | 500 to 1000 nM
O=C(c1nc2ccccc2s1)N1CCc2[nH]cnc2[C@@H]1c1cc2c(F)cccn2n1 [Example 2003, (R)-benzo[d]thiazol-2-yl(4-(4-fluoropyrazolo[1,5-a]pyridin-2-yl)-1,4,6,7-tetrahydro-5H-imidazo[4,5-c]pyridin-5-yl)methanone] | > 5000 nM
Cn1nccc1-c1nnc(C(=O)N2CCc3[nH]cnc3[C@H]2c2cc3ccccn3n2)o1 [Example 2004, (S)-(5-(1-methyl-1H-pyrazol-5-yl)-1,3,4-oxadiazol-2-yl)(4-(pyrazolo[1,5-a]pyridin-2-yl)-1,4,6,7-tetrahydro-5H-imidazo[4,5-c]pyridin-5-yl)methanone] | 500 to 1000 nM
Cn1nccc1-c1nnc(C(=O)N2CCc3[nH]cnc3[C@@H]2c2cc3ccccn3n2)o1 [Example 2005, (R)-(5-(1-methyl-1H-pyrazol-5-yl)-1,3,4-oxadiazol-2-yl)(4-(pyrazolo[1,5-a]pyridin-2-yl)-1,4,6,7-tetrahydro-5H-imidazo[4,5-c]pyridin-5-yl)methanone] | > 5000 nM
Cc1cc(-c2nnc(C(=O)N3CCc4[nH]cnc4[C@H]3c3cc4c(C(C)C)cccn4n3)o2)nn1C [Example 2007, (S)-(5-(1,5-dimethyl-1H-pyrazol-3-yl)-1,3,4-oxadiazol-2-yl)(4-(4-isopropylpyrazolo[1,5-a]pyridin-2-yl)-1,4,6,7-tetrahydro-5H-imidazo[4,5-c]pyridin-5-yl)methanone] | < 500 nM
Fc1ccc(-c2nnc(N3CCc4[nH]cnc4[C@H]3c3cc4c(Cl)cccn4n3)o2)cc1 [Example 2009, (S)-2-(4-(4-chloropyrazolo[1,5-a]pyridin-2-yl)-1,4,6,7-tetrahydro-5H-imidazo[4,5-c]pyridin-5-yl)-5-(4-fluorophenyl)-1,3,4-oxadiazole] | < 500 nM
Cc1cccc2cc([C@@H]3c4nc[nH]c4CCN3c3nnc(-c4ccc(F)cc4)o3)nn12 [Example 2010, (S)-2-(4-fluorophenyl)-5-(4-(7-methylpyrazolo[1,5-a]pyridin-2-yl)-1,4,6,7-tetrahydro-5H-imidazo[4,5-c]pyridin-5-yl)-1,3,4-oxadiazole] | < 500 nM
Cc1cccc2cc([C@H]3c4nc[nH]c4CCN3c3nnc(-c4ccc(F)cc4)o3)nn12 [Example 2011, (R)-2-(4-fluorophenyl)-5-(4-(7-methylpyrazolo[1,5-a]pyridin-2-yl)-1,4,6,7-tetrahydro-5H-imidazo[4,5-c]pyridin-5-yl)-1,3,4-oxadiazole] | > 5000 nM
FC(F)(F)c1ccc(N2CCc3[nH]cnc3[C@H]2c2cc3c(C(F)(F)F)cccn3n2)nc1 [Example 2013, (S)-4-(4-(trifluoromethyl)pyrazolo[1,5-a]pyridin-2-yl)-5-(5-(trifluoromethyl)pyridin-2-yl)-4,5,6,7-tetrahydro-1H-imidazo[4,5-c]pyridine] | < 500 nM
O=C(c1ocnc1C1CC1)N1CCc2[nH]cnc2[C@H]1c1cc2c(C(F)(F)F)cccn2n1 [Example 2014, (S)-(4-cyclopropyloxazol-5-yl)(4-(4-(trifluoromethyl)pyrazolo[1,5-a]pyridin-2-yl)-1,4,6,7-tetrahydro-5H-imidazo[4,5-c]pyridin-5-yl)methanone] | < 500 nM
Cn1ccc(-c2nnc(C(=O)N3CCc4[nH]cnc4[C@H]3c3cc4ccccn4n3)s2)n1 [Example 2016, (S)-(5-(1-methyl-1H-pyrazol-3-yl)-1,3,4-thiadiazol-2-yl)(4-(pyrazolo[1,5-a]pyridin-2-yl)-1,4,6,7-tetrahydro-5H-imidazo[4,5-c]pyridin-5-yl)methanone] | < 500 nM
Cn1ccc(-c2nnc(C(=O)N3CCc4[nH]cnc4[C@@H]3c3cc4ccccn4n3)s2)n1 [Example 2017, (R)-(5-(1-methyl-1H-pyrazol-3-yl)-1,3,4-thiadiazol-2-yl)(4-(pyrazolo[1,5-a]pyridin-2-yl)-1,4,6,7-tetrahydro-5H-imidazo[4,5-c]pyridin-5-yl)methanone] | > 5000 nM
Cn1cc(-c2nnc(C(=O)N3CCc4[nH]cnc4[C@H]3c3cc4c(F)cccn4n3)s2)cn1 [Example 2018, (S)-(4-(4-fluoropyrazolo[1,5-a]pyridin-2-yl)-1,4,6,7-tetrahydro-5H-imidazo[4,5-c]pyridin-5-yl)(5-(1-methyl-1H-pyrazol-4-yl)-1,3,4-thiadiazol-2-yl)methanone] | < 500 nM
Cn1cc(-c2nnc(C(=O)N3CCc4[nH]cnc4[C@@H]3c3cc4c(F)cccn4n3)s2)cn1 [Example 2019, (R)-(4-(4-fluoropyrazolo[1,5-a]pyridin-2-yl)-1,4,6,7-tetrahydro-5H-imidazo[4,5-c]pyridin-5-yl)(5-(1-methyl-1H-pyrazol-4-yl)-1,3,4-thiadiazol-2-yl)methanone] | > 5000 nM
Cc1cccn2nc([C@@H]3c4nc[nH]c4CCN3C(=O)c3nc4ccccc4o3)cc12 [Example 2020, (S)-benzo[d]oxazol-2-yl(4-(4-methylpyrazolo[1,5-a]pyridin-2-yl)-1,4,6,7-tetrahydro-5H-imidazo[4,5-c]pyridin-5-yl)methanone] | < 500 nM
O=C(c1nc2ccccc2s1)N1CCc2[nH]cnc2[C@H]1c1cc2c(C(F)F)cccn2n1 [Example 2022, (S)-benzo[d]thiazol-2-yl(4-(4-(difluoromethyl)pyrazolo[1,5-a]pyridin-2-yl)-1,4,6,7-tetrahydro-5H-imidazo[4,5-c]pyridin-5-yl)methanone] | 500 to 1000 nM
O=C(c1nc2ccccc2s1)N1CCc2[nH]cnc2[C@@H]1c1cc2c(C(F)F)cccn2n1 [Example 2023, (R)-benzo[d]thiazol-2-yl(4-(4-(difluoromethyl)pyrazolo[1,5-a]pyridin-2-yl)-1,4,6,7-tetrahydro-5H-imidazo[4,5-c]pyridin-5-yl)methanone] | > 5000 nM
Cc1cccn2nc([C@@H]3c4nc[nH]c4CCN3C(=O)C3CC3)cc12 [Example 2024, (S)-cyclopropyl(4-(4-methylpyrazolo[1,5-a]pyridin-2-yl)-1,4,6,7-tetrahydro-5H-imidazo[4,5-c]pyridin-5-yl)methanone] | < 500 nM
Cc1cccn2nc([C@@H]3c4nc[nH]c4CCN3C(=O)[C@H]3CC3(F)F)cc12 [Example 2027, ((R)-2,2-difluorocyclopropyl)((S)-4-(4-methylpyrazolo[1,5-a]pyridin-2-yl)-1,4,6,7-tetrahydro-5H-imidazo[4,5-c]pyridin-5-yl)methanone] | 500 to 1000 nM
